Patent publication US10172814B2, “Substituted pyridyl-cycloalkyl-carboxylic acids, compositions containing them and medical uses thereof” (BAYER PHARMA AKTIENGESELLSCHAFT, priority 2014, dated 2019)
Read-outs that look alike come from different tables or passages of the source. Blank lines part the entries; values can stand above or below the molecule they belong to.

Legend:
[1] = test system: CFA induced PGE2 release in the ipsilateral inflamed hind paw of human KI mice (expressing human PTGES); test: PGE2 measurements in CFA inflammation model using humanized KI mice; format: in vivo; conditions: for % inhibition of PGE2 in vivo vs vehicle: p.o., single dose, hind paw 48 h after CFA, 1 h after dose; for inhibition of CFA-induced PGE2 formation/release in the hind paw: single oral dosing, hu KI mice
Protocol: PGE2 Measurements in CFA Inflammation Model Using Humanized KI Mice
Female transgenic mice expressing the human PTGES enzyme (Taconic, Xu et al. 2008) received intraplantar injection of complete Freund's adjuvant (CFA) (30 μl, 1 mg/ml, Sigma) into the left hind paw under isoflurane anesthesia. […] At termination of the experiments (48 h after CFA, 1 h after dose), hind paw tissue is collected for analysis of PGE2 levels (ELISA, Cayman Chemical item no. 514531). […] Statistical analysis is performed with one-way analysis of variance, followed by Bonferroni's multiple comparison test vs. vehicle controls using the GraphPad PRISM software, *p<0.05, **p<0.01.

[2] = Unbound plasma concentration in human KI mice of the CFA model; format: in vivo; conditions: female, human PTGES knock-in (humanized KI, transgenic) mice, mouse, read-out: Plasma concentration Cplasma-unbound
Protocol: At termination of the experiments (48 h after CFA, 1 h after dose), hind paw tissue is collected for analysis of PGE2 levels (ELISA, Cayman Chemical item no. 514531). […] Statistical analysis is performed with one-way analysis of variance, followed by Bonferroni's multiple comparison test vs. vehicle controls using the GraphPad PRISM software, *p<0.05, **p<0.01.

human PTGES = human PTGES (Homo sapiens (Human), UniProt O14684); test: Human PTGES biochemical enzyme inhibition assay (conversion of PGH2 to PGE2, TR-FRET)
Chain of human PTGES (O14684 whole entry): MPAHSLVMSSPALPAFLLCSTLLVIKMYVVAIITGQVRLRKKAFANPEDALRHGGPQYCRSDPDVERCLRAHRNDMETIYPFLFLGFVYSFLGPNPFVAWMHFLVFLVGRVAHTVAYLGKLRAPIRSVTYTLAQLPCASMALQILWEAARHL
How it was run: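 FLAG-tagged human PTGES from Hi-5 insect cells preincubated 15–20 min with compound in pH 7.2 phosphate buffer with 2.5 mM reduced glutathione; reaction started with 8 nM PGH2 final, stopped with SnCl2/KF.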

[3] = test system: vaginal hyperalgesia and proliferation in endometriotic lesions; test: Endometriosis disease model (dyspareunia model); format: in vivo, rat; conditions: 0.75 mg/kg, bid, p.o.
Description: Endometriosis Disease Model (Dyspareunia Model)
Female SD rats underwent endometriosis surgery in the estrus phase. 4 uterine fragments were sewn onto the mesenteric artery arc (closed to small intestine) and few other fragments (>2) were sewn onto the distal colonic wall. In parallel electrodes for later Electromyography (EMG) recordings were implanted in the abdominal wall to allow recording of the visceral motor response. After training viscero-motor response (VMR)/vaginal distension (VD) testing was performed 5 and 6 weeks post-surgery in the proestrus phase. For vaginal distension session, the uninflated balloon was lubricated and inserted into the mid-vaginal canal, located so, that it would not touch the cervix even when inflated. Inflating the balloon with different volumes of water using a computer-controlled pump distended the vaginal canal. In parallel, EMG recordings were collected to measure the VMR related to the distension. At 6 weeks, post-surgery endometriotic lesions and endometrium were excised to perform lesion analysis. RNA expression analysis was performed of lesions and endometrium. RNA of lesions and endometrium was isolated after homogenization of tissues in guanidinium thiocyanate using the RNeasy mini Kit (Qiagen) with DNase digestion. One microgram of RNA was reversely transcribed with random hexamers using the SuperScript III First-Strand Synthesis System (Invitrogen). Real-time Taqman PCR analysis was performed using the 7900HT Real Time PCR-System (Applied Biosystems). Prevalidated probes and primers for Mki67 (antigen identified by monoclonal antibody Ki-67; catalog No. Rn01451446_m1) and the endogenous control TBP* (see FIG. 1A; TATA box binding protein; catalog No. Rn01455646_m1) were purchased from Applied Biosystems. Relative mRNA levels were calculated using the comparative […]CT method using the RQ-Manager software (Applied Biosystems).
Example 17 (0.75 mg/kg, bid, p.o.) was administered twice daily starting end of week 2 post surgery until week 5 post surgery.

[4] = test system: CFA-induced pain behavior in WT mice; test: CFA inflammation model with pain read out (dynamic weight bearing); format: in vivo; conditions: single oral dosing on day 2 post-CFA, example 17: 30, 100 mg/kg, example 44: 30, 75 mg/kg
Protocol: Efficacy in CFA Inflammation Model with Pain Read Out
Wild type (WT) female c57bl/6 mice (Taconic) received intraplantar injection of complete Freund's adjuvant (CFA) (30 μl, 1 mg/ml, Sigma) into the left hind paw under isoflurane anesthesia. […] Spontaneous pain-related behavior in freely moving animals was assessed using the automated dynamic weight bearing device (DWB, Bioseb, France) according to published and validated protocols: Robinson I, Sargent B, Hatcher J P, Neurosci Lett. 2012 Aug. 30; 524(2):107-10. Use of dynamic weight bearing as a novel end-point for the assessment of Freund's Complete Adjuvant induced hypersensitivity in mice; Tétreault P, Dansereau M A, Doré-Savard L, Beaudet N, Sarret P. Physiol Behav. 2011 Sep. […] 2014 Jul. 30; 232:118-24. Use of dynamic weight bearing as a novel end-point for the assessment of abdominal pain in the LPS-induced peritonitis model in the rat. For behavioral testing, the animal was placed inside a Plexiglas chamber and allowed to move freely within the apparatus for a 5 min period, subsequently pain behavior is recorded for a test period of another 5 min.
Statistical analysis is performed with one-way analysis of variance, followed by Bonferroni's multiple comparison test vs. vehicle controls using the GraphPad PRISM software, *p<0.05, **p<0.01.

[5] = Enzymatic conversion of PGH2 to PGE2, read-out: Human PTGES IC50
[6] = human PTGES, as listed in Table 2, read-out: hu IC50 biochem.

Structure (SMILES): Cc1c(CCC(=O)O)cccc1NC(=O)C(c1ccc(-c2cncc(C(F)(F)F)c2)cc1)C1CCC1 (single isomer, unassigned; (-)) [Example 55, (−) 3-{3-[(Cyclobutyl{4-[5-(trifluoromethyl)pyridin-3-yl]phenyl}acetyl)amino]-2-methylphenyl}propanoic acid]
% inhibition of PGE2 in vivo vs vehicle ([1]; 1 mg/kg): 84% | % inhibition of PGE2 in vivo vs vehicle ([1]; 3 mg/kg): 93% | % inhibition of PGE2 in vivo vs vehicle ([1]; 10 mg/kg): 96% | concentration at 1 h ([2]; in vivo, 1 mg/kg): 0.034 µM | concentration at 1 h ([2]; in vivo, 3 mg/kg): 0.103 µM | concentration at 1 h ([2]; in vivo, 10 mg/kg): 0.322 µM | IC50 (human PTGES; [5]): 0.0354 µM | IC50 (human PTGES; [6]): 0.027 µM

Structure (SMILES): Cc1c(CCC(=O)O)cccc1NC(=O)[C@@H](c1ccc(-c2cncc(Cl)c2)cc1)C1CCCC1 [Example 17, (−) (R) 3-[3-({[4-(5-Chloropyridin-3-yl)phenyl](cyclopentyl)acetyl}amino)-2-methylphenyl]propanoic acid]
% inhibition of PGE2 in vivo vs vehicle ([1]; 10 mg/kg): 88% | inhibition of CFA-induced PGE2 formation/release in the hind paw [1]: strong efficacy | concentration at 1 h ([2]; plasma, oral, 10 mg/kg): 0.38 µM | vaginal hyperalgesia versus vehicle-treated animals ([3]; end of week 2 until week 5 post surgery, rats): significantly decreased vaginal hyperalgesia | proliferation in lesions (gene expression of proliferation marker Ki67 vs. housekeeping control) ([3]; Taqman in week 6): significantly reduced proliferation in lesions | vaginal hyperalgesia effect in the treatment free period ([3]; treatment free period of week 6): effect was maintained | IC50 (human PTGES; [5]): 0.0352 µM | IC50 (human PTGES; [6]): 0.035 µM | pain behavior as assessed by DWB after CFA-induced inflammation [4]: significantly and dose-dependently reduced pain behavior

Structure (SMILES): Cc1c(CCC(=O)O)cccc1NC(=O)C(c1ccc(-c2cncc(C(F)(F)F)c2)c(F)c1)C1CCCC1 (single isomer, unassigned; (-)) [Example 48, (−) 3-{3-[(Cyclopentyl{3-fluoro-4-[5-(trifluoromethyl)pyridin-3-yl]phenyl}acetyl)amino]-2-methylphenyl}propanoic acid]
% inhibition of PGE2 in vivo vs vehicle ([1]; 1 mg/kg): 38% | % inhibition of PGE2 in vivo vs vehicle ([1]; 3 mg/kg): 74% | % inhibition of PGE2 in vivo vs vehicle ([1]; 10 mg/kg): 78% | concentration at 1 h ([2]; in vivo, 1 mg/kg): 0.011 µM | concentration at 1 h ([2]; in vivo, 3 mg/kg): 0.032 µM | concentration at 1 h ([2]; in vivo, 10 mg/kg): 0.088 µM | IC50 (human PTGES; [5]): 0.0142 µM | IC50 (human PTGES; [6]): 0.003 µM

concentration at 1 h ([2]; plasma, oral, 1 mg/kg): 0.015 µM | concentration at 1 h ([2]; plasma, oral, 3 mg/kg): 0.047 µM | concentration at 1 h ([2]; plasma, oral, 10 mg/kg): 0.173 µM
Structure (SMILES): Cc1c(CCC(=O)O)cccc1NC(=O)C(c1ccc(-c2cncc(Cl)c2)c(F)c1)C1CCCC1 (single isomer, unassigned; (-)) [Example 44, (−) 3-[3-({[4-(5-Chloropyridin-3-yl)-3-fluorophenyl](cyclopentyl)acetyl}amino)-2-methylphenyl]propanoic acid]
% inhibition of PGE2 in vivo vs vehicle ([1]; 1 mg/kg): 95% | % inhibition of PGE2 in vivo vs vehicle ([1]; 3 mg/kg): 65% | % inhibition of PGE2 in vivo vs vehicle ([1]; 10 mg/kg): 100% | inhibition of CFA-induced PGE2 formation/release in the hind paw [1]: strong efficacy | pain behavior as assessed by DWB after CFA-induced inflammation [4]: significantly and dose-dependently reduced pain behavior
